For one series, the target named is T1, T7 RNA polymerase (Escherichia phage T7, UniProt P00573).
T1 construct: purchased Thermo Scientific
The series can be described thus: In vitro transcription of GLuc mRNA with cap analogs, gel analysis. In kind it is biochemical. As for the experimental part:
First, the DNA sequence coding for eGFP, Firefly luciferase (FLuc) or Gaussia luciferase (GLuc) mRNAs were amplified from pmRNA-vectors containing the respective sequence. After purification (NucleoSpin Gel and PCR Clean-up, Macherey-Nagel), the resulting linear dsDNA was used as template (200 ng) for in vitro T7 transcription performed in transcription buffer (40 mM Tris/HCl, 25 mM NaCl, 8 mM MgCl2, 2 mM spermidine(HCl)3) by adding either a A/C/UTP (0.5 mM) mix or a mix with modified nucleotides (A/m^5C/N^1-methylpseudo-UTP) (0.5 mM), GTP (0.25 mM), GpppG, m7GpppG, ApppG, DMNB or NPOM cap analog (1 mM), T7 RNA polymerase (50 U) (Thermo Scientific) and pyrophosphatase (0.1 U) (Thermo Scientific) for 4 h at 37° C. Remaining DNA template was digested in presence of 2 U DNase I for 1 h at 37° C. and then mRNAs were purified using the RNA Clean & Concentrator™-5 Kit (Zymo Research). To digest non-capped RNAs, 10 U of the RNA 5′-polyphosphatase (Epicentre) as well as the supplied reaction buffer were added to purified mRNAs. After an incubation period of 30 min at 37° C., 0.5 U of the 5′-3′ exoribonuclease XRN1 (NEB) and MgCl2 (5 mM) were added. The reaction mixture was incubated for 60 min at 37° C. Subsequently, capped mRNAs were purified using the RNA Clean & Concentrator™-5 Kit (Zymo Research).
The photocleavable 5′-cap analogs of formulas (12) and (18) were used for in vitro transcription of GLuc mRNA as described above and analysed via agarose gel electrophoresis.
“M” denotes Riboruler low range RNA ladder.

In a further series the test system is Reticulocyte Lysate. The series can be described thus: In vitro translation of capped FLuc-mRNA and luminescence measurement. The series is classed as biochemical. As for the experimental part:
In vitro translation was performed using a eukaryotic cell free protein expression kit from Reticulocyte Lysate (Invitrogen). Experiments were performed in 12.5 μL total volume containing 20 ng of the corresponding FLuc-mRNAs, 50 μM L-methionine and 150 mM potassium acetate. Samples were mixed with 8.5 μL of the reticulocyte lysate and incubated for 90 min at 30° C. Afterwards, 2 μL of the respective translation mix were used in subsequent luminescence measurement. The translation efficiency of the reporter mRNAs was assessed in a luciferase assay using Beetle-juice Luciferase Assay Firefly (pjk). Luciferase activity was determined by adding 50 μL freshly prepared substrate solution to the translation mixture. Luminescence was monitored using a Tecan Infinite® m1000pro microplate reader with an acquisition time of 3 s (duration of signal acquisition).
The photocleavable 5′-cap analog of formula (7) was used for in vitro transcription to make FLuc mRNA as described above. This was used for in vitro translation and Luminescence measurement as described above. The commercial non-modified cap analog denoted “m^7GpppG” (Jena Bioscience) was used as positive control. Samples were irradiated for 30 seconds. The ApppG capped mRNA, which is not recognized by the translation initiation factor served as negative control, which is substracted from the other samples as it represents background activity. The experiment was performed in quadruplicates. The FLuc-mRNA capped with the photocleavable 5′-cap analog of formula (7) is denoted “ONB”.
The in vitro translation assay and luminescence measurement was performed as described above using the photocleavable 5′-cap analog of formula (12). The capped mRNA was denoted “DMNB-m^7GpCH2ppG capped FLuc-mRNA”. Samples were irradiated for 30 seconds (365 nm) or 60 seconds (405 nm). The commercial non-modified cap analog denoted “m^7GpppG” (Jena Bioscience) was used as positive control and all other samples were normalized to it. The ApppG capped mRNA, which is not recognized by the translation initiation factor served as negative control, which is substracted from the other samples as it represents background activity. The experiment was performed in triplicates, except *DMNB-m7GpCH2ppG (365 nm) which was a single determination.
The in vitro translation assay in reticulocyte lysate and luminescence measurement was performed as described above using m^7GpppG capped FLuc-mRNA caged with the photocleavable 5′-cap analog of formulas (22) and (25) (denoted “DMNB m^7GpppG” and “NPOM m^7GpppG”). Samples were irradiated for 30 seconds at 365 nm. The ApppG capped mRNA, which is not recognized by the translation initiation factor served as negative control, which was substracted from the other samples as it represents background activity. The values were normalized to the non-irradiated sample with m^7GpppG capped mRNA (100%). The experiment was performed in triplicates.
The in vitro translation assay in reticulocyte lysate and luminescence measurement was performed as described above using m^7GpppG capped FLuc-mRNA with modified nucleotides m^5C and N^1methyl-pseudouridine caged with the photocleavable 5′-cap analog of formulas (22) and (25) (denoted “DMNB m^7GpppG mod” and “NPOM m^7GpppG mod”). Samples were irradiated for 30 seconds at 365 nm. The ApppG capped mRNA, which is not recognized by the translation initiation factor served as negative control, which was substracted from the other samples as it represents background activity. The values were normalized to the non-irradiated sample with m^7GpppG capped mRNA (100%). The experiment was performed in triplicates.

Series [1] can be described thus: Irradiation of caged nucleosides, conversion estimated by HPLC. In kind it is physicochemical. The note with it: 450 nm; H2O:ACN (1:1). As for the experimental part: Conversions from caged compounds to uncaged compounds were estimated by integrating the peaks of a UV-spectrum that resulted from the HPLC analysis (Agilent infinity 1260).
When irradiating isolated N2-modified compounds, a final volume of 10 μL in double distilled water was irradiated using a LED (λmax=365 nm/405 nm/420 nm) and then analyzed by RP-HPLC.
A 500 μM solution of the compound 15, nitropiperonylmethyl fused via a carbamate moiety to guanosine (denoted “NPOM guanosine” or “caged guanosine”), in water/acetone/acetonitrile was irradiated in a 10 μL volume with either 405 nm for 20 s, 40 s or 60 s or with 365 nm for 5 s, 10 s or 20 s, respectively, using a LED power (input 3W and output 147 mW/cm^2). HPLC analysis was performed as described above.
Samples of the adenosine fused via a carbamate moiety to 7-(diethylamino)-4-(hydroxymethyl)-coumarin (DEACM) were irradiated with 450 nm. […] The peak at 21.1 min corresponds to the obtained compound and the peaks at 11.1 and 21.9 min correspond to the photo-cleavage products adenosine and DEACM-OH, respectively.

Another series deals with HeLa cells. The series can be described thus: Translation and irradiation in HeLa cells of capped GLuc-mRNA (luminescence). The series is classed as cell-based. As for the experimental part: HeLa cells were transferred to a 96 well plate 20 h prior transfection. 30.000 cells/well were cultivated in growth Media (MEM, 10% FCS, 1% glutamine, 1% Penicillin, 1% Streptomycine, […] non-essential aminoacids). For transfection the growth media was exchanged for MEM-media with 0.6 μL Metafectene® Pro (0.3 μL) and 100 ng mRNA was added per well. 6 h after transfection of the cells the media was exchange by MEM-media, followed by irradiation and another MEM-media exchange. After 24 h post transfection the supernatant in the wells was used for further luminescence measurements. Values of the ApppG capped mRNA represent cap independent translation and were therefore subtracted from the other values.
In cell translation and irradiation in cell culture of mammalian HeLa cells was performed as described above. GLuc mRNA capped with the photocleavable 5′-cap analog of formula (12) (“DMNB”) was used and the commercial non-modified cap analog denoted “m^7GpppG” (Jena Bioscience) was used as a control. HeLa cells were either transfected with the DMNB-m^7GpCH2ppG capped mRNA (irradiated and non-irradiated before transfection) or with the natural capped mRNA (irradiated and non-irradiated before transfection). Irradiation of the mRNA containing the natural cap was performed (5 V, 600 mA) with 365 nm for 30 seconds to evaluate the resulting influence on translational efficiency. DMNB-m^7GpCH2ppG capped mRNA was irradiated in the same way or with 405 nm for 60 seconds. The ApppG capped mRNA, which is not recognized by the translation initiation factor served as negative control, which is substracted from the other samples as it represents background activity. The values were normalized to the non-irradiated m^7GpppG capped sample (100%). The experiment was performed in triplicates.
The luminescence measurement of cell culture media after translation in cells transfected with modified and non-modified GLuc mRNA was repeated using irradiation with 365 nm/405 nm for different periods of time. HeLa cells were either transfected with the GLuc mRNA capped with the photocleavable 5′-cap analog of formula (12) denoted “DMNB-m^7GpCH2ppG capped mRNA” or with the natural m^7GpppG capped mRNA. Cells transfected with the natural capped mRNA were irradiated (5 V, 600 mA) with 365 nm/405 nm for 30 s or 60 s to evaluate the resulting influence on translational efficiency. Cells transfected with DMNB-m^7GpCH2ppG capped mRNA were irradiated in the same way. The ApppG capped mRNA, which is not recognized by the translation initiation factor served as negative control, which is substracted from the other samples as it represents background activity. The values were normalized to the non-irradiated cells with m^7GpppG capped mRNA (100%). The experiment was performed in triplicates.
Luminescence measurement of cell culture media after translation of transfected modified and non-modified GLuc mRNA in cells. HeLa cells were either transfected with the NPOM-m^7GpCH2ppG capped mRNA or with the natural m^7GpppG capped mRNA. Cells transfected with the natural capped mRNA were irradiated (5 V, 600 mA) with 365 nm/405 nm for different periods of time to evaluate the resulting influence on translational efficiency. Cells transfected with NPOM-m^7GpCH2ppG capped mRNA were irradiated in the same way. The ApppG capped mRNA, which is not recognized by the translation initiation factor served as negative control, which is substracted from the other samples as it represents background activity. […]

T1 sequence (P00573 whole entry): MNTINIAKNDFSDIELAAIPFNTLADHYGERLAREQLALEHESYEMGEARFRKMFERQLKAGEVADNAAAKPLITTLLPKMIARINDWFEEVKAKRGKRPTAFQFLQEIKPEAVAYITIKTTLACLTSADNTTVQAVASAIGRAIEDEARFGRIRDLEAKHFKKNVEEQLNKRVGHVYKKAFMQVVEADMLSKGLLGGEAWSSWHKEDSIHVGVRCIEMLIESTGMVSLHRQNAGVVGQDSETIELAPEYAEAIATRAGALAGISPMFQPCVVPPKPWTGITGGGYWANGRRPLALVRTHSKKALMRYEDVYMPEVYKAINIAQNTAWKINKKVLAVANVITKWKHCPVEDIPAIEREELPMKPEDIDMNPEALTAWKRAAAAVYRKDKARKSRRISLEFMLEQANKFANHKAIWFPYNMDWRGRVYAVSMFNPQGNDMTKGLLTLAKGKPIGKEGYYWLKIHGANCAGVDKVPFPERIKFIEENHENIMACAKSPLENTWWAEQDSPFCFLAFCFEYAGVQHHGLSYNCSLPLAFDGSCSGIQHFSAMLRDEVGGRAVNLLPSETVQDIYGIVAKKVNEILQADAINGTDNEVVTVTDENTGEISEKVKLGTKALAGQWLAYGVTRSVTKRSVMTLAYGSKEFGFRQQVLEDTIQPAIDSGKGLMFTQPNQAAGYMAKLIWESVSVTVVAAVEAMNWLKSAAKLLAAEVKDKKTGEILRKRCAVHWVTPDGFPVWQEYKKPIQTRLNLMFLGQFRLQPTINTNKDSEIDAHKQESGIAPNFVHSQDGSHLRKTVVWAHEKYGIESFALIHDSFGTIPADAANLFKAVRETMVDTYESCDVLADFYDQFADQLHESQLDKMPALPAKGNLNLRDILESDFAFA

Consider `Cn1c[n+]([C@@H]2O[C@H](COP(=O)(O)OP(=O)([O-])OP(=O)(O)OC[C@H]3O[C@@H](n4cnc5c(=O)[nH]c(N)nc54)[C@H](O)[C@@H]3O)[C@@H](O)[C@H]2O)c2nc(N)[nH]c(=O)c21` [m^7GpppG, reference compound], for which, on T7 RNA polymerase, the “incorporation of cap analog into RNA” value was “incorporated into the RNA”. For `CC(OC(=O)Nc1nc2c(c(=O)[nH]1)[n+](C)cn2[C@@H]1O[C@H](COP(=O)(O)OP(=O)(O)OP(=O)(O)OC[C@H]2O[C@@H](n3cnc4c(=O)[nH]c(N)nc43)C(O)C2O)C(O)C1O)c1cc2c(cc1[N+](=O)[O-])OCO2` (stereo partly drawn) [compound 25, P1-(N^2-(1-(6-nitrobenzo[d][1,3]dioxol-5-yl)ethyl)oxycarbonyl-7-methylguanosin-5′-yl)-P3-guanosin-5′-yl triphosphate], the “in vitro translation (luminescence) after irradiation” value in the series on Reticulocyte Lysate (capped FLuc-mRNA with modified nucleotides m^5C and N^1methyl-pseudouridine, 30 seconds at 365 nm) is listed as “marked increase of translation”; in the series on Reticulocyte Lysate (capped FLuc-mRNA, regular nucleotides, 30 seconds at 365 nm), “marked increase of translation”. With `CCN(CC)c1ccc2c(COC(=O)Nc3ncnc4c3ncn4[C@@H]3O[C@H](CO)[C@H](O)C3O)cc(=O)oc2c1` (stereo partly drawn), the “photo-cleavage upon irradiation (HPLC)” value in series [1] is reported as “photocleavable”. As to `C[n+]1cn([C@@H]2O[C@H](COP(=O)(O)CP(=O)(O)OP(=O)(O)OC[C@H]3O[C@@H](n4cnc5c(=O)[nH]c(N)nc54)C(O)C3O)C(O)C2O)c2nc(NC(=O)OCc3ccccc3[N+](=O)[O-])[nH]c(=O)c21` (stereo partly drawn) [compound 7, P1-(N^2-(2-Nitrobenzyl)oxycarbonyl-7-methylguanosin-5′-yl)-P3-guanosin-5′-yl 1,2-methylenetriphosphate], the “in vitro translation (luminescence) after irradiation” value in the series on Reticulocyte Lysate (capped FLuc-mRNA, irradiated for 30 seconds) was “partially restored”. In addition, the “in vitro translation (luminescence), non-irradiated” value with Reticulocyte Lysate (capped FLuc-mRNA, non-irradiated, normalized to m^7GpppG capped mRNA) was “successfully inhibited to a high degree”. The “translation efficiency (luminescence of cell supernatant)” value in the series on HeLa cells (differently capped GLuc mRNAs, normalized to m^7GpppG, single determination) is on record as “impacts the translation efficiency in an inhibiting way”. For the molecule `CC(OC(=O)Nc1nc2c(c(=O)[nH]1)[n+](C)cn2[C@@H]1O[C@H](COP(=O)(O)CP(=O)(O)OP(=O)(O)OC[C@H]2O[C@@H](n3cnc4c(=O)[nH]c(N)nc43)C(O)C2O)C(O)C1O)c1cc2c(cc1[N+](=O)[O-])OCO2` (stereo partly drawn) [compound 18, P1-(N^2-(1-(6-nitrobenzo[d][1,3]dioxol-5-yl)ethyl)oxycarbonyl-7-methylguanosin-5′-yl)-P3-guanosin-5′-yl 1,2-methylenetriphosphate], the “incorporation of cap analog into RNA” value on T7 RNA polymerase is “incorporated into the RNA”. Further, the “translation in cells (luminescence) after irradiation of the cells” value with HeLa cells (GLuc mRNA, transfected cells irradiated 15 s, 25 s or 30 s, increase at 365 nm) is listed as “significant increase of translation”.

(Values after patent US20250276994A1, “CAP ANALOG FOR THE 5'-END OF EUKARYOTIC MESSENGER RNAS” (WESTFÄLISCHE WILHELMS-UNIVERSITÄT, priority 2021, published 2025).)
